{"source": "ChEMBL document CHEMBL4879554", "about": "“Data for DCP probe GNE-2256” (2021)", "key": {"[1]": {"molecular_target": "Mitogen-activated protein kinase kinase kinase 2 (Homo sapiens) (UniProt Q9Y2U5)", "assay": "MEKK2 Kinase panel", "settings": "Compound concentration 1.0 uM"}, "[2]": {"molecular_target": "Rho-associated protein kinase 2 (Homo sapiens) (UniProt O75116)", "assay": "ROCK2 Kinase panel", "settings": "Compound concentration 1.0 uM"}, "[3]": {"molecular_target": "Activin receptor type-1B (Homo sapiens) (UniProt P36896)", "assay": "ACVR1B Kinase panel", "settings": "Compound concentration 1.0 uM"}, "[4]": {"assay": "IFNalpha human whole blood assay", "format": "tissue-based"}, "[5]": {"molecular_target": "Mitogen-activated protein kinase 9 (Homo sapiens) (UniProt P45984)", "assay": "JNK2 Kinase panel", "settings": "Compound concentration 1.0 uM"}, "[6]": {"molecular_target": "Receptor tyrosine-protein kinase erbB-2 (Homo sapiens) (UniProt P04626)", "sequence (P04626 whole entry)": "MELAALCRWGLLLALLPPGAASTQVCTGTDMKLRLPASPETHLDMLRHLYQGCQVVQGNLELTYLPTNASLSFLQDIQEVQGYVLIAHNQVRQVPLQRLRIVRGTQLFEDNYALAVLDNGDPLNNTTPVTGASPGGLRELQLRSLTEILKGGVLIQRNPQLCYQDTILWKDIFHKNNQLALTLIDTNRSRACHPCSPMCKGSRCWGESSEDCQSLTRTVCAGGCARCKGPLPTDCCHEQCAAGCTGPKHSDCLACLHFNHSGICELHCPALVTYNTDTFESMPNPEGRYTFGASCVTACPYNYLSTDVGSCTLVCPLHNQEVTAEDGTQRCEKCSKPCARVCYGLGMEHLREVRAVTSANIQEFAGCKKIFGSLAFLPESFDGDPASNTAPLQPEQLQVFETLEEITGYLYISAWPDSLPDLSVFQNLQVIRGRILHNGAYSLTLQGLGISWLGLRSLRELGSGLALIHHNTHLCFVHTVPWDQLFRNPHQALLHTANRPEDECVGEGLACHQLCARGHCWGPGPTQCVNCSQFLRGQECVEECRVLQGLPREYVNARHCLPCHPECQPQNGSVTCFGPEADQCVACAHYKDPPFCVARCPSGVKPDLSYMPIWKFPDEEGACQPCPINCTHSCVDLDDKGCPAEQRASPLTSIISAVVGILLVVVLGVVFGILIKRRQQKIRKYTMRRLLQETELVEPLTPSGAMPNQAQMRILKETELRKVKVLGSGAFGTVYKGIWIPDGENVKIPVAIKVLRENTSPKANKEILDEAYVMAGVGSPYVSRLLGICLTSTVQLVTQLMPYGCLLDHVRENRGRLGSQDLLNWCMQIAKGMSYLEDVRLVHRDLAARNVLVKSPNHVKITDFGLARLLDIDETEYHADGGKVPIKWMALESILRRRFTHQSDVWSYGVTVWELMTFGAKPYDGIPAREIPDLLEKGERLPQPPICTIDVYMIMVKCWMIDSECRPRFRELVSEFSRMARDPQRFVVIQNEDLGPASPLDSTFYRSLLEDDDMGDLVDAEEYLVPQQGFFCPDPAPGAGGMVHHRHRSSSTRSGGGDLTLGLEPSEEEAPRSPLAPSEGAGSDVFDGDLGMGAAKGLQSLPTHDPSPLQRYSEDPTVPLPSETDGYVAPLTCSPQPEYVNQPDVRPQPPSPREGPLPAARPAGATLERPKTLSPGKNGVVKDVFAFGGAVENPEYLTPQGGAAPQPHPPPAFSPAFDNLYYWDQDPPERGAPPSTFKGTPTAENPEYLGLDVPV", "assay": "ErbB2 Kinase panel", "settings": "Compound concentration 1.0 uM"}, "[7]": {"molecular_target": "Muscarinic acetylcholine receptor M2 (Homo sapiens) (UniProt P08172)", "settings": "Compound concentration 10.0 uM"}, "[8]": {"molecular_target": "Ephrin type-A receptor 8 (Homo sapiens) (UniProt P29322)", "assay": "EphA8 Kinase panel", "settings": "Compound concentration 1.0 uM"}, "[9]": {"species": "Rattus norvegicus", "settings": "Compound concentration 10.0 uM"}, "[10]": {"molecular_target": "D(4) dopamine receptor (Homo sapiens) (UniProt P21917)", "settings": "Compound concentration 10.0 uM"}, "[11]": {"molecular_target": "Dual specificity mitogen-activated protein kinase kinase 3 (Homo sapiens) (UniProt P46734)", "sequence (P46734 whole entry)": "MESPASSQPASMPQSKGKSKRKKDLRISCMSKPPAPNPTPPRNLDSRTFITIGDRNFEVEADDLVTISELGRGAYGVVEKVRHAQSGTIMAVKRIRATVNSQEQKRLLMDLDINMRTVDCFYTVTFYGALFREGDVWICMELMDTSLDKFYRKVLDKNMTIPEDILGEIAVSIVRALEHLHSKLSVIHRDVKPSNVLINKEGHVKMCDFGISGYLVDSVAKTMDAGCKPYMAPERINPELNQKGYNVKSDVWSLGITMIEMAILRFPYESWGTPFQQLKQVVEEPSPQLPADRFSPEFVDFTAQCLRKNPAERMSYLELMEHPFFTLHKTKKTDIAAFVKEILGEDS", "assay": "MEK3 Kinase panel", "settings": "Compound concentration 1.0 uM"}, "[12]": {"molecular_target": "Tyrosine-protein kinase CSK (Homo sapiens) (UniProt P41240)", "assay": "CSK Kinase panel", "settings": "Compound concentration 1.0 uM"}, "[13]": {"molecular_target": "Casein kinase II subunit alpha (Homo sapiens) (UniProt P68400)", "assay": "CK2_alpha1 Kinase panel", "settings": "Compound concentration 1.0 uM"}, "[14]": {"molecular_target": "Tyrosine-protein kinase ABL1 (Homo sapiens) (UniProt P00519)", "assay": "Abl Kinase panel", "settings": "Compound concentration 1.0 uM"}, "[15]": {"molecular_target": "Beta-adrenergic receptor kinase 1 (Homo sapiens) (UniProt P25098)", "assay": "GRK2 Kinase panel", "settings": "Compound concentration 1.0 uM"}, "[16]": {"molecular_target": "Leucine-rich repeat serine/threonine-protein kinase 2 (Homo sapiens) (UniProt Q5S007)", "assay": "LRRK2 Kinase panel", "settings": "Compound concentration 1.0 uM"}, "[17]": {"molecular_target": "Focal adhesion kinase 1 (Homo sapiens) (UniProt Q05397)", "assay": "FAK Kinase panel", "settings": "Compound concentration 1.0 uM"}, "[18]": {"molecular_target": "Serine/threonine-protein kinase 3 (Homo sapiens) (UniProt Q13188)", "assay": "MST2 Kinase panel", "settings": "Compound concentration 1.0 uM"}, "[19]": {"molecular_target": "Epidermal growth factor receptor (Homo sapiens) (UniProt P00533)", "sequence (P00533 whole entry)": "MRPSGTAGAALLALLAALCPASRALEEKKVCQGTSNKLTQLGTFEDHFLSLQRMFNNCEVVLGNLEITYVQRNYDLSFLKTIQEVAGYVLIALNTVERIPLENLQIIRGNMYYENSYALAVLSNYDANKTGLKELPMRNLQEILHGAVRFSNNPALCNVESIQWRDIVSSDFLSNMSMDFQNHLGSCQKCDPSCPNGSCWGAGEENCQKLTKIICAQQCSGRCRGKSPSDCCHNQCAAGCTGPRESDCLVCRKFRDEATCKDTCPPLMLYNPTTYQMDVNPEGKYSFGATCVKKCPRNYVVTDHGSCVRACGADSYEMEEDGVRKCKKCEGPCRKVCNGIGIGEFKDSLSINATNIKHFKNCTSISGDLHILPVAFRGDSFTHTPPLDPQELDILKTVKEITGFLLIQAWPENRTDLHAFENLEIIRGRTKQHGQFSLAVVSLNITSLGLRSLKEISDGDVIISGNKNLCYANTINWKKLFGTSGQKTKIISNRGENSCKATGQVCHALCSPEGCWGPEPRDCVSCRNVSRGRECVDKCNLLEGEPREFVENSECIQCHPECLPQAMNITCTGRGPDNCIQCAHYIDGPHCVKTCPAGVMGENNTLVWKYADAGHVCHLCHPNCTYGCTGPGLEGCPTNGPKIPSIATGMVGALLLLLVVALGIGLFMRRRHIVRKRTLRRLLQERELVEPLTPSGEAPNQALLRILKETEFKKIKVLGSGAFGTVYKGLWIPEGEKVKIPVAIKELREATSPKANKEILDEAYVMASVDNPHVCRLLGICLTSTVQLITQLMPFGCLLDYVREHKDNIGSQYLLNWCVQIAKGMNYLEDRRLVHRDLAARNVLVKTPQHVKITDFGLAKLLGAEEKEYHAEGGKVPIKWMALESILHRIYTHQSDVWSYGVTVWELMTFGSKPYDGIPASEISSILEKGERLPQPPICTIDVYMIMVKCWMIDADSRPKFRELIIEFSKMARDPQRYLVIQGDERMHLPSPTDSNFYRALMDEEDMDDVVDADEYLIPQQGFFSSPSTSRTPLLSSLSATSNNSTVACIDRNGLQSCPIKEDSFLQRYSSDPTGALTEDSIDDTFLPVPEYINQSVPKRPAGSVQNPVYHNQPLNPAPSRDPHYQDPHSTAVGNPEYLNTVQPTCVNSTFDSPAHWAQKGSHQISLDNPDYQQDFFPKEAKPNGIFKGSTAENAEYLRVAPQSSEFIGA", "assay": "EGFR Kinase panel", "settings": "Compound concentration 1.0 uM"}, "[20]": {"molecular_target": "MAP kinase-interacting serine/threonine-protein kinase 2 (Homo sapiens) (UniProt Q9HBH9)", "assay": "MKNK2 Kinase panel", "settings": "Compound concentration 1.0 uM"}, "[21]": {"molecular_target": "Tyrosine-protein kinase SYK (Homo sapiens) (UniProt P43405)", "assay": "Syk Kinase panel", "settings": "Compound concentration 1.0 uM"}, "[22]": {"molecular_target": "Testis-specific serine/threonine-protein kinase 1 (Homo sapiens) (UniProt Q9BXA7)", "assay": "TSSK1 Kinase panel", "settings": "Compound concentration 1.0 uM"}, "[23]": {"molecular_target": "NUAK family SNF1-like kinase 1 (Homo sapiens) (UniProt O60285)", "assay": "ARK5 Kinase panel", "settings": "Compound concentration 1.0 uM"}, "[24]": {"molecular_target": "Serine/threonine-protein kinase Nek9 (Homo sapiens) (UniProt Q8TD19)", "assay": "NEK9 Kinase panel", "settings": "Compound concentration 1.0 uM"}, "[25]": {"molecular_target": "Ribosomal protein S6 kinase alpha-3 (Homo sapiens) (UniProt P51812)", "sequence (P51812 whole entry)": "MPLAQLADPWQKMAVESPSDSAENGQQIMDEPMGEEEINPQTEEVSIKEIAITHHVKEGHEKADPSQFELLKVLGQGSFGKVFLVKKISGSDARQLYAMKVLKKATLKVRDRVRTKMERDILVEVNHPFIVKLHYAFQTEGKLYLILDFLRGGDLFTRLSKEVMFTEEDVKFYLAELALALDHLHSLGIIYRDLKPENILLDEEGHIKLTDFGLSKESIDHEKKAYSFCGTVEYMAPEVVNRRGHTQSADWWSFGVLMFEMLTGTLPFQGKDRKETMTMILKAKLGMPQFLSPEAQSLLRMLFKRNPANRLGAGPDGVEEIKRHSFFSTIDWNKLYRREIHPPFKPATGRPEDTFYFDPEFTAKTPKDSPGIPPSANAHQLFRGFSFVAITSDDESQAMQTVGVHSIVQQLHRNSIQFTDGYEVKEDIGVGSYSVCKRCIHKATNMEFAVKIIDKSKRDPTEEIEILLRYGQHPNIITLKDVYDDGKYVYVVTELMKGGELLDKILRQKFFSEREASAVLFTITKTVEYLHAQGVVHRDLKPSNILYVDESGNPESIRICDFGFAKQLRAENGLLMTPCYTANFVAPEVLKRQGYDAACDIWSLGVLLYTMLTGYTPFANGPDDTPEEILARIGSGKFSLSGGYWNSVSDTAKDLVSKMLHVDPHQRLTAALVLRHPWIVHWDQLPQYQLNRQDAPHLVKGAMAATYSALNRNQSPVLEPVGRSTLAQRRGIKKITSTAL", "assay": "RSK2 Kinase panel", "settings": "Compound concentration 1.0 uM"}, "[26]": {"molecular_target": "Serine/threonine-protein kinase PAK 4 (Homo sapiens) (UniProt O96013)", "assay": "PAK4 Kinase panel", "settings": "Compound concentration 1.0 uM"}, "[27]": {"molecular_target": "Ribosomal protein S6 kinase alpha-1 (Homo sapiens) (UniProt Q15418)", "assay": "RSK1 Kinase panel", "settings": "Compound concentration 1.0 uM"}, "[28]": {"molecular_target": "Cyclin-dependent kinase 2/cyclin A (Homo sapiens) (UniProt P24941+P20248+P78396)", "assay": "CDK2/cyclinA Kinase panel", "format": "protein-complex assay", "settings": "Compound concentration 1.0 uM"}, "[29]": {"molecular_target": "5-hydroxytryptamine receptor 1D (Homo sapiens) (UniProt P28221)", "settings": "Compound concentration 10.0 uM"}, "[30]": {"molecular_target": "Mitogen-activated protein kinase 10 (Homo sapiens) (UniProt P53779)", "assay": "JNK3 Kinase panel", "settings": "Compound concentration 1.0 uM"}, "[31]": {"molecular_target": "D(2) dopamine receptor (Homo sapiens) (UniProt P14416)", "settings": "Compound concentration 10.0 uM"}, "[32]": {"molecular_target": "Megakaryocyte-associated tyrosine-protein kinase (Homo sapiens) (UniProt P42679)", "assay": "Hyl Kinase panel", "settings": "Compound concentration 1.0 uM"}, "[33]": {"molecular_target": "Calcium/calmodulin-dependent protein kinase type 1D (Homo sapiens) (UniProt Q8IU85)", "assay": "CaMKI_delta Kinase panel", "settings": "Compound concentration 1.0 uM"}, "[34]": {"molecular_target": "Protein kinase C beta type (Homo sapiens) (UniProt P05771)", "assay": "PKC_beta1 Kinase panel", "settings": "Compound concentration 1.0 uM"}, "[35]": {"molecular_target": "Interleukin-1 receptor-associated kinase 1 (Homo sapiens) (UniProt P51617)", "assay": "IRAK1 Kinase panel", "settings": "Compound concentration 1.0 uM"}, "[36]": {"molecular_target": "Alpha-2C adrenergic receptor (Homo sapiens) (UniProt P18825)", "settings": "Compound concentration 10.0 uM"}, "[37]": {"molecular_target": "Aurora kinase B (Homo sapiens) (UniProt Q96GD4)", "sequence (Q96GD4 whole entry)": "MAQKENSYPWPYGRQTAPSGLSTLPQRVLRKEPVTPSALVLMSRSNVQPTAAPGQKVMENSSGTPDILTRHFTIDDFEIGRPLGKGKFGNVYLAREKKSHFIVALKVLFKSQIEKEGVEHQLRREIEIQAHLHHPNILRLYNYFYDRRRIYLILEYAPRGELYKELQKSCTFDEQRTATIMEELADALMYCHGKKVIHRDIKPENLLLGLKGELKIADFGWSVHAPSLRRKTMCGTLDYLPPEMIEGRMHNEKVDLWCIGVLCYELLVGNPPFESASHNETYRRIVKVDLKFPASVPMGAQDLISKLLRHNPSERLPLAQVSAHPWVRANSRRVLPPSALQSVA", "assay": "Aurora_B Kinase panel", "settings": "Compound concentration 1.0 uM"}, "[38]": {"molecular_target": "Serine/threonine-protein kinase 25 (Homo sapiens) (UniProt O00506)", "assay": "YSK1 Kinase panel", "settings": "Compound concentration 1.0 uM"}, "[39]": {"molecular_target": "5-hydroxytryptamine receptor 1B (Homo sapiens) (UniProt P28222)", "settings": "Compound concentration 10.0 uM"}, "[40]": {"molecular_target": "Platelet-derived growth factor receptor alpha (Homo sapiens) (UniProt P16234)", "assay": "PDGFR_alpha Kinase panel", "settings": "Compound concentration 1.0 uM"}, "[41]": {"molecular_target": "Tyrosine-protein kinase JAK1 (Homo sapiens, UniProt P23458)", "sequence (P23458 whole entry)": "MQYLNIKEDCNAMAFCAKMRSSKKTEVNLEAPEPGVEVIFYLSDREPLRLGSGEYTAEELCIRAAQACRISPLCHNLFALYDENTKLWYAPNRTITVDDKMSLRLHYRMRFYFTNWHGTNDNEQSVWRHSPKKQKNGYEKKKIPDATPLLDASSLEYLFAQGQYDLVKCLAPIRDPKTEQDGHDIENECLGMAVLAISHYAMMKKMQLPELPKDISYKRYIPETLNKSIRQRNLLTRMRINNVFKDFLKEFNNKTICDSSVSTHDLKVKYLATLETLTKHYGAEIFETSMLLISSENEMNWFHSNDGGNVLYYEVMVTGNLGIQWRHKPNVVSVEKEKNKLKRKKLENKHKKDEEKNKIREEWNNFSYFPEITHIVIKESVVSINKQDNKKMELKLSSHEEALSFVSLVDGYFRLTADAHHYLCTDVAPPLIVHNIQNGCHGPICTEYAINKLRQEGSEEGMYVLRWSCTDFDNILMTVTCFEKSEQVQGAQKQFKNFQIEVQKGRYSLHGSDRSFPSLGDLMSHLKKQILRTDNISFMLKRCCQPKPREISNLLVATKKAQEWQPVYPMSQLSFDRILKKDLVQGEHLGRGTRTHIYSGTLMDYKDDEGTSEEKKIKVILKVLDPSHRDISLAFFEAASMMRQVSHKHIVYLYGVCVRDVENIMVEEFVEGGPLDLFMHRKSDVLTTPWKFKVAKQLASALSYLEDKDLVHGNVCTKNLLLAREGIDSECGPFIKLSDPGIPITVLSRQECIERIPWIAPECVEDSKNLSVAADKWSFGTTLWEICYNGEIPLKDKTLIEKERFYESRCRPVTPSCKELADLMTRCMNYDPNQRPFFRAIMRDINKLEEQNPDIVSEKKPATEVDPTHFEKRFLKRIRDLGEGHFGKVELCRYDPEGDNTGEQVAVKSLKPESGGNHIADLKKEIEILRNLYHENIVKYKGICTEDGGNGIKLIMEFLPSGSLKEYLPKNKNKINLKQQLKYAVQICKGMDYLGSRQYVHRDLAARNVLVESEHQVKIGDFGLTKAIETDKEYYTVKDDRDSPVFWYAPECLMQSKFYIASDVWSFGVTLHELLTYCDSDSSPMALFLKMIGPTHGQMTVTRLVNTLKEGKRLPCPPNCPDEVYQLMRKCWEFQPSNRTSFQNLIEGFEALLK", "assay": "NanoBRET assay (JAK1, SGC Frankfurt)"}, "[42]": {"molecular_target": "TGF-beta receptor type-1 (Homo sapiens) (UniProt P36897)", "assay": "TGFBR1 Kinase panel", "settings": "Compound concentration 1.0 uM"}, "[43]": {"molecular_target": "CDK8/Cyclin C (Homo sapiens) (UniProt P49336+P24863)", "assay": "CDK8/cyclinC Kinase panel", "format": "protein-complex assay", "settings": "Compound concentration 1.0 uM"}, "[44]": {"molecular_target": "Fibroblast growth factor receptor 4 (Homo sapiens) (UniProt P22455)", "assay": "FGFR4 Kinase panel", "settings": "Compound concentration 1.0 uM"}, "[45]": {"molecular_target": "Homeodomain-interacting protein kinase 1 (Homo sapiens) (UniProt Q86Z02)", "assay": "HIPK1 Kinase panel", "settings": "Compound concentration 1.0 uM"}, "[46]": {"molecular_target": "Casein kinase I isoform gamma-2 (Homo sapiens) (UniProt P78368)", "assay": "CK1_gamma2 Kinase panel", "settings": "Compound concentration 1.0 uM"}}, "note": "Activity calls are given as the source filed them. No cut-off for these calls is given here."}
{"smiles": "CC(C)(O)[C@H](F)CN1Cc2cc(NC(=O)c3cnn4cccnc34)c(N3CCOCC3)cc2C1=O", "values": [{"measurement": "inhibition", "setting": "[1]", "value": 3.5, "unit": "%"}, {"measurement": "inhibition", "setting": "[2]", "value": 6, "unit": "%"}, {"measurement": "inhibition", "setting": "[3]", "value": -1, "unit": "%"}, {"measurement": "IC50", "setting": "[4]", "value": "0.29 µM (active)"}, {"measurement": "inhibition", "setting": "[5]", "value": 2.5, "unit": "%"}, {"measurement": "inhibition", "setting": "[6]", "value": 1.5, "unit": "%"}, {"measurement": "inhibition", "setting": "[7]", "value": -9.33, "unit": "%"}, {"measurement": "inhibition", "setting": "[8]", "value": 13, "unit": "%"}, {"measurement": "inhibition", "setting": "[9]", "value": -2.15, "unit": "%"}, {"measurement": "inhibition", "setting": "[10]", "value": -9.22, "unit": "%"}, {"measurement": "inhibition", "setting": "[11]", "value": 12, "unit": "%"}, {"measurement": "inhibition", "setting": "[12]", "value": 22, "unit": "%"}, {"measurement": "inhibition", "setting": "[13]", "value": 3.5, "unit": "%"}, {"measurement": "inhibition", "setting": "[14]", "value": 9.8, "unit": "%"}, {"measurement": "inhibition", "setting": "[15]", "value": -3, "unit": "%"}, {"measurement": "inhibition", "setting": "[16]", "value": 91.4, "unit": "%"}, {"measurement": "inhibition", "setting": "[17]", "value": 19.5, "unit": "%"}, {"measurement": "inhibition", "setting": "[18]", "value": 7, "unit": "%"}, {"measurement": "inhibition", "setting": "[19]", "value": 6.8, "unit": "%"}, {"measurement": "inhibition", "setting": "[20]", "value": 6.5, "unit": "%"}, {"measurement": "inhibition", "setting": "[21]", "value": 9, "unit": "%"}, {"measurement": "inhibition", "setting": "[22]", "value": 5, "unit": "%"}, {"measurement": "inhibition", "setting": "[23]", "value": 23.5, "unit": "%"}, {"measurement": "inhibition", "setting": "[24]", "value": -2.5, "unit": "%"}, {"measurement": "inhibition", "setting": "[25]", "value": 15, "unit": "%"}, {"measurement": "inhibition", "setting": "[26]", "value": 5, "unit": "%"}, {"measurement": "inhibition", "setting": "[27]", "value": 7.5, "unit": "%"}, {"measurement": "inhibition", "setting": "[28]", "value": 3, "unit": "%"}, {"measurement": "inhibition", "setting": "[29]", "value": 33.2, "unit": "%"}, {"measurement": "inhibition", "setting": "[30]", "value": 10.5, "unit": "%"}, {"measurement": "inhibition", "setting": "[31]", "value": 3.24, "unit": "%"}, {"measurement": "inhibition", "setting": "[32]", "value": -4, "unit": "%"}, {"measurement": "inhibition", "setting": "[33]", "value": 2, "unit": "%"}, {"measurement": "inhibition", "setting": "[34]", "value": 4, "unit": "%"}, {"measurement": "inhibition", "setting": "[35]", "value": 64.3, "unit": "%"}, {"measurement": "inhibition", "setting": "[36]", "value": -8.65, "unit": "%"}, {"measurement": "inhibition", "setting": "[37]", "value": 21.3, "unit": "%"}, {"measurement": "inhibition", "setting": "[38]", "value": 5, "unit": "%"}, {"measurement": "inhibition", "setting": "[39]", "value": 33, "unit": "%"}, {"measurement": "inhibition", "setting": "[40]", "value": 40.5, "unit": "%"}, {"measurement": "EC50", "setting": "[41]", "value": "> 50 µM (not active)"}, {"measurement": "inhibition", "setting": "[42]", "value": 0.5, "unit": "%"}, {"measurement": "inhibition", "setting": "[43]", "value": 13.5, "unit": "%"}, {"measurement": "inhibition", "setting": "[44]", "value": -2, "unit": "%"}, {"measurement": "inhibition", "setting": "[45]", "value": -0, "unit": "%"}, {"measurement": "inhibition", "setting": "[46]", "value": 5, "unit": "%"}]}
